Where two headings read alike, the source gives them in different places.

The nature of series [1]: Cytotoxicity test on Vero cells (alamarBlue). In kind it is cell-based, African green monkey. On the procedure:
(§1) Vero cells (kidney of African green monkey epithelial cell line) were cultured at 37 °C in the MEM liquid medium supplemented with 10% FBS (EuroClone SpA), 1% levoglutamine (EuroClone SpA), and 1% penicillin–streptomycin (EuroClone SpA). THP-1 cells (human leukemia monocytic cell line) were cultured at 37 °C in the RPMI 1640 (EuroClone SpA) liquid medium supplemented with 10% FBS (EuroClone SpA), 1% levoglutamine (EuroClone SpA), 1% penicillin–streptomycin, and mercaptoethanol (Gibco) 50 μM.
(§2) The cytotoxicity of the compounds was determined using mammalian kidney epithelial cells (Vero cell line) and human acute monocytic leukemia cell line (THP-1). Cells were seeded (10^5 cells mL^–1) on 96-well plates with the complete MEM medium and incubated with test compounds at 37 °C in a 5% CO2 incubator. After 72 h of incubation, 20 μL of the alamarBlue reagent was added to each well and incubated at 37 °C for 24 h. Reduction of resazurin to resorufin was evaluated after 24 h by absorbance measurement at the Multiskan ascent plate reader (Thermo Fisher Scientific Inc.,) at 550 and 630 nm. […] Each experiment was performed in duplicate.
For orientation: The colour change of resazurin is a common sign of viable cells or microbes.

The test system of series [2] is L. donovani promastigotes (MHOM/NP/02/BPK282/0cl4). As to the kind of experiment: Promastigote growth inhibition assay (alamarBlue). It is filed as cell-based, Leishmania donovani. The conditions noted are these: for IC50: Leishmania donovani; for Selectivity index (SI) = CC50/IC50: Vero CC50 / IC50 on promastigotes; for Activity against promastigotes under the bioassay conditions: 40 μM compound. As for the experimental part:
The bioactivity of the new tetrahydropyrans 3 was initially evaluated against the extracellular promastigote forms of L. donovani (MHOM/NP/02/BPK282/0cl4) as the reference strain, indicative of the leishmaniasis in the Old World. The results were expressed as IC50, i.e., the concentration of the product required to inhibit the parasite growth by 50%. When a compound could inhibit the promastigote growth, its cytotoxicity was also evaluated on Vero cells (Table 1) and on THP-1 cells (see the Supporting Information, Table S3) and the corresponding selectivity indexes (SIs) were calculated. The performance of each tetrahydropyran 3 was compared with that of the corresponding endoperoxide 2 (Table 1).
Promastigotes of a L. donovani reference strain (MHOM/NP/02/BPK282/0cl4) were maintained at 26 °C in a liquid custom-made medium, HOMEM Cat. no: 1140-082 (Gibco Thermo Fisher Scientific Inc., Waltham, USA), complete composition: S-MEM (Eagle) 1 × 1 liter pack, glucose (1–2 g), sodium bicarbonate (0.3 g), sodium pyruvate (0.11 g), p-aminobenzoic acid (1 mg), biotin (0.1 mg), HEPES (4.77–5.96 g), MEM amino acids (10 mL), MEM nonessential amino acids (10 mL), pH 7.5–7.6, supplemented with 20% fetal bovine serum (FBS, EuroClone SpA, Milan, Italy)[123] and 1% penicillin–streptomycin (EuroClone SpA).
To evaluate the efficacy of the compounds on the extracellular forms of L. donovani, promastigotes in their late log/stationary phase were seeded with the complete HOMEM medium at 10^6 cells mL^–1 in 96-well plates and incubated with tested compounds at a range concentration of 600–1.6 μM in a 26 °C incubator for 72 h. The antileishmanial drug amphotericin B was used as the positive control, and untreated promastigotes were the negative control. Each experiment was performed in duplicate. Stock solution of the compounds was 8 mM in DMSO. […] The alamarBlue assay includes a colorimetric growth indicator based on detection of metabolic activity. Specifically, the system incorporates an oxidation–reduction (REDOX) indicator that changes color in response to chemical reduction of the growth medium resulting from cell growth. The method monitors the reducing environment of proliferating cells; the cell-permeable resazurin is added (nonfluorescent form, blue color) and, upon entering cells, is reduced to resorufin (fluorescent form, red color) as a result of cellular metabolic activity. Evaluation was performed by adding 20 μL of alamarBlue and incubating at 26 °C for 24 h. The reducing environment was evaluated after 24 h by absorbance measurement at the Multiskan ascent plate reader (Thermo Fisher Scientific Inc.) at 550 and 630 nm.

For series [3] the test system is unchanged. The series can be described thus: Promastigote growth inhibition assay (alamarBlue). In kind it is cell-based. As to conditions: Leishmania donovani, HOMEM with 10% FBS.
A short description of series [4]: Cytotoxicity test on THP-1 cells (alamarBlue). In kind it is cell-based. The conditions noted are these: human, THP-1 cells (acute monocytic leukemia cell line); CSV supplement; read-out: CC50 against human acute monocytic leukemia cell line (THP-1). On the procedure:
as §1, §2
Cytotoxicity in THP-1 cell line
We performed additional cytotoxicity tests employing THP-1 cell line. We also calculated the
corresponding selectivity indexes, as the ratio between CC50 of THP-1 cell line and IC50 on amastigotes
THP-1 cells than on VERO cells; thus showing a not significant variance of selectivity index.
Table S3. Inhibitory activity of tetrahydropyrans 3 and endoperoxides 2 against amastigotes of L.
donovani, cytotoxicity in human acute monocytic leukemia cell line (THP-1) and selectivity index (SI).
Tetrahydropyran IC50 CC50 Endoperoxide IC50 CC50
a (µM)b (µM)c a (µM)b (µM)c
a Compounds tested as racemates. b IC50 represents the concentration of a compound that causes 50% growth inhibition.
Results represent the mean (± standard deviation, SD) of three independent experiments performed in duplicate. c CC50
represents 50% cytotoxic concentration on THP-1 cells. d Selectivity index (SI) = CC50/IC50. […]

Series [5] deals with L. donovani promastigotes. As to the kind of experiment: Promastigote growth inhibition in the presence of an iron chelator (DFO or DFP), isobologram. It is filed as cell-based, Leishmania donovani. The conditions noted are these: synergism <0.5, antagonism >4.0, else additivity. On the procedure:
At first, we determined IC50 and CC50 values of the iron chelator DFO (187 and >400 μM, respectively). Then, the effect of the iron chelator presence on the bioactivity of the two compounds was studied by coincubating 2a and 3a with DFO at different concentrations. The variation of IC50 of the compounds in relation to the different doses of DFO was determined by the alamarBlue assay (Table 3), and the isobole technique was employed to depict the interactions of 2a and 3a with DFO (Figure 6).
The isobole technique was used for depicting synergistic or antagonistic interaction between the iron chelator and the two compounds on the parasite growth (Figure 6). Combinations are expressed as the sum of the fractional inhibitory concentrations (ΣFIC), and FIC values are defined as synergism (<0.5), antagonism (>4.0), and additivity (no interaction). The strength of synergism (or antagonism) is indicated by the degree of deviation from the line of additivity.
[…]. Each compound was added using a concentration range including the IC50 of each compound. Each experiment was performed in duplicate. The viability of the parasites was determined by the alamarBlue assay. The fractional inhibitory concentration (FIC; FIC = IC50 of the drug in the combination/IC50 of the drug when tested alone) of each compound was calculated and plotted as an isobologram.

Series [6] has as its system intramacrophage amastigotes of L. donovani. The series can be described thus: Amastigote growth inhibition assay in infected THP-1 cells (Giemsa, infectivity index). In kind it is cell-based, Leishmania donovani. As to conditions: for IC50: Leishmania donovani, intracellular amastigotes in THP-1, 72 h, read-out: IC50 against amastigotes of L. donovani. On the procedure:
To evaluate the efficacy of the compounds on the intracellular form of L. donovani, human acute monocytic leukemia cell line (THP-1) was infected with L. donovani promastigotes. Cells were harvested and seeded in a 96-well plate (10^5 cells mL^–1) in the complete RPMI 1640 medium, and PMA (0.1 μM, Cayman Chemical Company, Ann Arbor, Michigan, USA) was added for obtaining maturation and cell adherence. Cells were incubated at 37 °C in a 5% CO2 incubator. After 48 h, the medium was replaced with the fresh medium containing stationary-phase promastigotes that were then phagocyted by monocytic cells and transformed into intracellular amastigotes. After 24 h of incubation, newly synthesized compounds were added and the plates were incubated at 37 °C in a 5% CO2 incubator for 72 h. After incubation, wells were washed, fixed, and stained with Giemsa. Staining was detected using a Nikon Eclipse E200 light microscope (Nikon, Tokyo, Japan). The infectivity index (% of infected macrophages × average number of amastigotes per macrophage) was determined by counting at least 100 cells in duplicate cultures.

Setting [7] is: chlorocebus sabaeus, Vero cells (kidney epithelial cell line), 72 h, alamarBlue, read-out: CC50 (50% cytotoxic concentration) on Vero cells.
Where [8] appears, read: 72 h, alamarBlue, HOMEM 20% FBS, compounds as racemates, read-out: IC50 (concentration causing 50% growth inhibition) against promastigotes of L. donovani.
The mark [9] stands for this setting: THP-1 CC50 / IC50 on amastigotes.
[10] abbreviates: Vero CC50 / IC50 on amastigotes.

Take `CO[C@]1(C)OCC(c2ccccc2)(c2ccccc2)C[C@@H]1CNCCCn1ccnc1` (racemic) [3b, 3-(1H-Imidazol-1-yl)-N-((2-methoxy-2-methyl-5,5-diphenyltetrahydro-2H-pyran-3-yl)methyl)propan-1-amine]: the CC50 at 72 h is 42.3 ± 3.2 µM in series [1] (setting [7]) and 50 µM in series [4]. Further, the IC50 was found to be 5.8 ± 0.9 µM in series [2] (setting [8]), 3.2 µM in series [3] and 3.2 ± 0.9 µM in series [6]. In addition, the entries for the “Selectivity index (SI) = CC50/IC50” value in series [2], in series [6] (setting [9]) and in series [6] (setting [10]) were 7.3, 15.6 and 13.2, respectively. Also, in series [5], the “Interaction with the iron chelator DFO (isobologram, ΣFIC)” value is “additive effects”.
Take `CO[C@]1(C)OCC(C)(C)C[C@@H]1CNCCCn1ccnc1` (racemic) [3c, 3-(1H-Imidazol-1-yl)-N-((2-methoxy-2,5,5-trimethyltetrahydro-2H-pyran-3-yl)methyl)propan-1-amine]: the “Activity against promastigotes under the bioassay conditions” value in series [2] is “inactive”. Further, the IC50 in series [2] (setting [8]) is over 40 µM.
For the compound `CO[C@]1(C)OCC(c2ccccc2)(c2ccccc2)C[C@@H]1COCc1cn(CCC[P+](c2ccccc2)(c2ccccc2)c2ccccc2)nn1.[Br-]` (racemic) [3d, (3-(4-(((2-Methoxy-2-methyl-5,5-diphenyltetrahydro-2H-pyran-3-yl)methoxy)methyl)-1H-1,2,3-triazol-1-yl)propyl)triphenylphosphonium bromide], the CC50 at 72 h in series [1] (setting [7]) was 92 ± 8.7 µM; in series [4], 64.1 µM. For the same compound, the IC50 in series [2] (setting [8]) was found to be 18 ± 3 µM; in series [6] it was 2.8 ± 0.7 µM. Further, the figures for the “Selectivity index (SI) = CC50/IC50” value in series [2], in series [6] (setting [9]) and in series [6] (setting [10]) were 5.1, 22.9 and 32.8, respectively.
In the case of `CCCCC1(CCCC)CO[C@@](C)(OC)[C@@H](CNCCCCNc2c3ccc(Cl)cc3nc3ccc(OC)cc23)C1` (racemic) [3e, N^1-(6-Chloro-2-methoxyacridin-9-yl)-N^4-((5,5-dibutyl-2-methoxy-2-methyltetrahydro-2H-pyran-3-yl)methyl)butane-1,4-diamine], the CC50 at 72 h in series [1] (setting [7]) worked out at 1.2 µM. The IC50 in series [2] (setting [8]) is 0.9 µM. For the same compound, the “Selectivity index (SI) = CC50/IC50” value in series [2] is given as 1.3.
Consider `CO[C@]1(C)OOC(C)(C)C[C@@H]1CNCCCn1ccnc1` [2c], for which, in series [2], the “Activity against promastigotes under the bioassay conditions” value was “inactive”. Besides, the IC50 in series [2] (setting [8]) is over 40 µM.
For the compound `Br.CO[C@]1(C)OOC(c2ccccc2)(c2ccccc2)C[C@@H]1COCc1cn(CCC[P+](c2ccccc2)(c2ccccc2)c2ccccc2)nn1` [2d], the CC50 at 72 h in series [1] (setting [7]) came out at 238 ± 36.8 µM; in series [4], 142 µM. Also, the figures for the IC50 in series [2] (setting [8]) and in series [6] were 13.8 ± 2.2 µM and 16.5 ± 1.5 µM, respectively. Further, the “Selectivity index (SI) = CC50/IC50” value in series [2] came to 17.3; in series [6] (setting [9]), 8.6; in series [6] (setting [10]), 14.4.
For the compound `CCCCC1(CCCC)C[C@H](CNCCCCNc2c3ccc(Cl)cc3nc3ccc(OC)cc23)[C@](C)(OC)OO1` [2e, N^1-(6-Chloro-2-methoxyacridin-9-yl)-N^4-((6,6-dibutyl-3-methoxy-3-methyl-1,2-dioxan-4-yl)methyl)butane-1,4-diamine], the CC50 at 72 h in series [1] (setting [7]) came out at 1.3 µM. In addition, the IC50 in series [2] (setting [8]) was found to be 0.5 µM. For the same compound, the “Selectivity index (SI) = CC50/IC50” value in series [2] was 2.6.
For `CCCCC1(CCCC)C[C@H](CNCCCCNc2ccc([N+](=O)[O-])c3nonc23)[C@](C)(OC)OO1` [2f, N^1-((6,6-Dibutyl-3-methoxy-3-methyl-1,2-dioxan-4-yl)methyl)-N^4-(7-nitrobenzo[c][1,2,5]oxadiazol-4-yl)butane-1,4-diamine], in that order: 12.1 µM, 11.4 µM and 1.1.
For `C[C@H]1[C@H](OC(=O)CCC(=O)O)O[C@@H]2O[C@@]3(C)CC[C@H]4[C@H](C)CC[C@@H]1[C@@]24OO3` [Artesunate, reference compound], the IC50 in series [2] (setting [8]) and in series [6] was over 40 µM in each case.
Regarding `CC(=O)N(O)CCCCCNC(=O)CCC(=O)N(O)CCCCCNC(=O)CCC(=O)N(O)CCCCCN` [DFO, desferrioxamine, reference compound], in series [1] (cell line not given, read-out: CC50 of the iron chelator), the CC50 at 72 h is over 400 µM. The IC50 in series [2] (72 h, read-out: IC50 (concentration causing 50% growth inhibition) against promastigotes of L. donovani) is 187 µM.
Turning to `Cc1c(O)c(=O)ccn1C` [DFP, deferiprone, reference compound], in series [1] (cell line not given, read-out: CC50 of the iron chelator DFP), the CC50 at 72 h was 143 µM. Also, the IC50 in series [2] (read-out: IC50 of the iron chelator DFP) amounted to 219 µM.
